According to PubChem BioAssay AID1259407 (Chemical Carcinogenesis Research Information System (CCRIS), 2018):
Activity calls are given as the source filed them. No rule for the calls is given here.

System: CCRIS mutagenicity, Ames/micronucleus/aberration tests
Assay: CCRIS mutagenicity studies
[1] = Test System: AMES SALMONELLA TYPHIMURIUM, Strain/Indicator: TA98, Metabolic Activation: NONE, Method: PREINCUBATION
[2] = Test System: AMES SALMONELLA TYPHIMURIUM, Strain/Indicator: TA100, Metabolic Activation: NONE, Method: PREINCUBATION
[3] = Test System: UDS RAT HEPATOCYTES, Strain/Indicator: THY INCORP, Metabolic Activation: NONE, Method: AUTORADIOGRAPHY
[4] = Test System: AMES SALMONELLA TYPHIMURIUM, Strain/Indicator: TA100, Metabolic Activation: NONE, Method: STANDARD PLATE

## CCC=O
[1]
  mutagenic call: inactive; negative
Test System: AMES SALMONELLA TYPHIMURIUM, Strain/Indicator: TA98, Metabolic Activation: RAT, LIVER, S-9, AROCLOR 1254, Method: PREINCUBATION
  mutagenic call: inactive; negative
[2]
  mutagenic call: inactive; negative
Test System: AMES SALMONELLA TYPHIMURIUM, Strain/Indicator: TA100, Metabolic Activation: RAT LIVER S-9, AROCLOR 1254, Method: PREINCUBATION
  mutagenic call: inactive; negative
Test System: AMES SALMONELLA TYPHIMURIUM, Strain/Indicator: TA100, Metabolic Activation: RAT, LIVER, S-9, AROCLOR 1254, Method: PREINCUBATION
  mutagenic call: inactive; negative
Test System: AMES SALMONELLA TYPHIMURIUM, Strain/Indicator: TA102, Metabolic Activation: NONE, Method: PREINCUBATION
  mutagenic call: inactive; negative
Test System: AMES SALMONELLA TYPHIMURIUM, Strain/Indicator: TA102, Metabolic Activation: RAT LIVER S-9, AROCLOR 1254, Method: PREINCUBATION
  mutagenic call: inactive; negative
Test System: AMES SALMONELLA TYPHIMURIUM, Strain/Indicator: TA102, Metabolic Activation: RAT, LIVER, S-9, AROCLOR 1254, Method: PREINCUBATION
  mutagenic call: inactive; negative
Test System: AMES SALMONELLA TYPHIMURIUM, Strain/Indicator: TA104, Metabolic Activation: NONE, Method: PREINCUBATION
  mutagenic call: inactive; negative
Test System: AMES SALMONELLA TYPHIMURIUM, Strain/Indicator: TA104, Metabolic Activation: RAT LIVER S-9, AROCLOR 1254, Method: PREINCUBATION
  mutagenic call: inactive; negative
Test System: CHINESE HAMSTER V-79, Strain/Indicator: V-79/6-THIOGUANINE (HGPRT), Metabolic Activation: NONE, Method: REPLATING
  mutagenic call: active; positive
Test System: CHINESE HAMSTER V-79, Strain/Indicator: V-79/6-THIOGUANINE, Metabolic Activation: NONE
  mutagenic call: inactive; negative
Test System: CHINESE HAMSTER V-79, Strain/Indicator: V-79/OUABAIN (NA/K), Metabolic Activation: NONE, Method: REPLATING
  mutagenic call: active; positive
Test System: UDS HUMAN HEPATOCYTES, Strain/Indicator: THY INCORP, Metabolic Activation: NONE, Method: AUTORADIOGRAPHY
  mutagenic call: inactive; negative
[3]
  mutagenic call: active; positive

## O=C1CCCCC1=O
[4]
  mutagenic call: active; positive

## CC(=O)O[C@@]1(C)C(=O)OC/C2=C/CN(C)CC[C@@H](OC(=O)[C@]3(C[C@H]1C)O[C@@H]3C)C2=O
[3]
  mutagenic call: active; positive

## O=C(ON(OCc1ccccc1)C(=O)c1ccccc1)c1cccc([N+](=O)[O-])c1
[4]
  mutagenic call: active; positive
Test System: AMES SALMONELLA TYPHIMURIUM, Strain/Indicator: TA100, Metabolic Activation: RAT, S-9, AROCLOR, Method: STANDARD PLATE
  mutagenic call: active; positive

## C[n+]1ccccc1-c1cccc[n+]1C
Test System: AMES SALMONELLA TYPHIMURIUM, Strain/Indicator: TA97, Metabolic Activation: RAT, LIVER, S-9, PHENOBARBITAL, Method: STANDARD PLATE
  mutagenic call: active; positive
Test System: AMES SALMONELLA TYPHIMURIUM, Strain/Indicator: TA98, Metabolic Activation: RAT, LIVER, S-9, PHENOBARBITAL, Method: STANDARD PLATE
  mutagenic call: active; positive
Test System: AMES SALMONELLA TYPHIMURIUM, Strain/Indicator: TA100, Metabolic Activation: RAT, LIVER, S-9, PHENOBARBITAL, Method: STANDARD PLATE
  mutagenic call: active; positive
Test System: AMES SALMONELLA TYPHIMURIUM, Strain/Indicator: TA1535, Metabolic Activation: RAT, LIVER, S-9, PHENOBARBITAL, Method: STANDARD PLATE
  mutagenic call: inactive; negative
Test System: AMES SALMONELLA TYPHIMURIUM, Strain/Indicator: TA1537, Metabolic Activation: RAT, LIVER, S-9, PHENOBARBITAL, Method: STANDARD PLATE
  mutagenic call: inactive; negative
Test System: AMES SALMONELLA TYPHIMURIUM, Strain/Indicator: TA1538, Metabolic Activation: RAT, LIVER, S-9, PHENOBARBITAL, Method: STANDARD PLATE
  mutagenic call: inactive; negative

## C=C1C(=O)O[C@@H]2CCN3CC=C(COC(=O)[C@](C)(O)[C@H](C)[C@H]1C)[C@H]23
Test System: AMES SALMONELLA TYPHIMURIUM, Strain/Indicator: TA100, Metabolic Activation: RAT, LIVER, S-9, SODIUM PHENOBARBITAL AND BETA-NAPHTHOFLAVONE, Method: PREINCUBATION
  mutagenic call: inactive; negative

## CCC(=O)C1c2cccc(O)c2C(=O)c2c(O)cccc21
Test System: AMES SALMONELLA TYPHIMURIUM, Strain/Indicator: TA1537, Metabolic Activation: NONE, Method: STANDARD PLATE
  mutagenic call: active; positive
Test System: AMES SALMONELLA TYPHIMURIUM, Strain/Indicator: TA1537, Metabolic Activation: RAT, LIVER, S-9, PHENOBARBITAL AND BETA-NAPHTHOFLAVONE, Method: STANDARD PLATE
  mutagenic call: active; positive
Test System: E. COLI, Strain/Indicator: WP2, Metabolic Activation: NONE, Method: STANDARD PLATE
  mutagenic call: inactive; negative
Test System: E. COLI, Strain/Indicator: WP2, Metabolic Activation: RAT, LIVER, S-9, AROCLOR 1254, Method: STANDARD PLATE
  mutagenic call: inactive; negative
Test System: E. COLI, Strain/Indicator: WP2 UVRA, Metabolic Activation: NONE, Method: STANDARD PLATE
  mutagenic call: inactive; negative
Test System: E. COLI, Strain/Indicator: WP2 UVRA, Metabolic Activation: RAT, LIVER, S-9, AROCLOR 1254, Method: STANDARD PLATE
  mutagenic call: inactive; negative

## O=C(O)c1cc(Cl)ccc1O
Test System: AMES SALMONELLA TYPHIMURIUM, Strain/Indicator: TA1538, Metabolic Activation: NONE, Method: STANDARD PLATE
  mutagenic call: inactive; negative
Test System: AMES SALMONELLA TYPHIMURIUM, Strain/Indicator: TA1538, Metabolic Activation: RAT,LIVER, S-9, AROCLOR 1254, Method: STANDARD PLATE
  mutagenic call: inactive; negative

## [Cl][Mn][Cl]
[1]
  mutagenic call: inactive; negative
Test System: AMES SALMONELLA TYPHIMURIUM, Strain/Indicator: TA98, Metabolic Activation: RAT LIVER S-9, PHENOBARBITAL AND BETA-NAPHTHOFLAVONE, Method: PREINCUBATION
  mutagenic call: inactive; negative
[2]
  mutagenic call: inactive; negative
Test System: AMES SALMONELLA TYPHIMURIUM, Strain/Indicator: TA100, Metabolic Activation: RAT LIVER S-9, PHENOBARBITAL AND BETA-NAPHTHOFLAVONE, Method: PREINCUBATION
  mutagenic call: inactive; negative
Test System: AMES SALMONELLA TYPHIMURIUM, Strain/Indicator: TA102, Metabolic Activation: NONE, Method: STANDARD PLATE
  mutagenic call: active; positive
Test System: AMES SALMONELLA TYPHIMURIUM, Strain/Indicator: TA1535, Metabolic Activation: NONE, Method: PREINCUBATION
  mutagenic call: inactive; negative
Test System: AMES SALMONELLA TYPHIMURIUM, Strain/Indicator: TA1535, Metabolic Activation: RAT LIVER S-9, PHENOBARBITAL AND BETA-NAPHTHOFLAVONE, Method: PREINCUBATION
  mutagenic call: inactive; negative
Test System: AMES SALMONELLA TYPHIMURIUM, Strain/Indicator: TA1537, Metabolic Activation: NONE, Method: PREINCUBATION
  mutagenic call: inactive; negative
Test System: AMES SALMONELLA TYPHIMURIUM, Strain/Indicator: TA1537, Metabolic Activation: RAT LIVER S-9, PHENOBARBITAL AND BETA-NAPHTHOFLAVONE, Method: PREINCUBATION
  mutagenic call: inactive; negative
Test System: AMES SALMONELLA TYPHIMURIUM, Strain/Indicator: TA1538, Metabolic Activation: NONE, Method: PREINCUBATION
  mutagenic call: inactive; negative
Test System: AMES SALMONELLA TYPHIMURIUM, Strain/Indicator: TA1538, Metabolic Activation: RAT LIVER S-9, PHENOBARBITAL AND BETA-NAPHTHOFLAVONE, Method: PREINCUBATION
  mutagenic call: inactive; negative
Test System: E. COLI, Strain/Indicator: WP2 UVRA, Metabolic Activation: NONE, Method: SPOT TEST
  mutagenic call: inactive; negative
Test System: E.COLI, Strain/Indicator: WP2UVRA, Metabolic Activation: NONE, Method: PREINCUBATION
  mutagenic call: inactive; negative
Test System: E.COLI, Strain/Indicator: WP2UVRA, Metabolic Activation: RAT LIVER S-9, PHENOBARBITAL AND BETA-NAPHTHOFLAVONE, Method: PREINCUBATION
  mutagenic call: inactive; negative
